Test results as given in publication PMC8766924 (Angewandte Chemie (International ed. in English), 2021).

Legend:
[1] = biological target: T1, A^4.67-Y5R (Homo sapiens, UniProt Q15761, V181A); format: cell-based; conditions: Figure 6C; transiently transfected COS-7
T1 sequence (Q15761 1-445 V181A): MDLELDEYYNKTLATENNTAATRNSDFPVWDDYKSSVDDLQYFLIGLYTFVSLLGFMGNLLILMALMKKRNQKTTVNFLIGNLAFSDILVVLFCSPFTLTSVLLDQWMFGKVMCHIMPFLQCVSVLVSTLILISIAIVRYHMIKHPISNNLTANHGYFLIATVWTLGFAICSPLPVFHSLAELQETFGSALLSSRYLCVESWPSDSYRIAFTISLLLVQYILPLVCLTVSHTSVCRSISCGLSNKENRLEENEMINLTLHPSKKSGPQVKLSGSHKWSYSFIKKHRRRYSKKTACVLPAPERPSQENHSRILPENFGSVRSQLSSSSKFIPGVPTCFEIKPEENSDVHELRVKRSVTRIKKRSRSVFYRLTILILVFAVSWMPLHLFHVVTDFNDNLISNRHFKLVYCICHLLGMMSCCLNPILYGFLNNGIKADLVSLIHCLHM

[2] = tested on: Y5R; conditions: still binds Y5R but not other Y receptors; cited from earlier work
[3] = tested on: Y5R; experiment: Calcium flux assay of NPY analogs; format: cell-based; conditions: Figure 3B-C, at least two independent experiments in triplicates

| Substance | Potency loss at wt Y5R compared to NPY [3] [fold] | further results |
| --- | --- | --- |
| A^28-NPY: NPY analog carrying Ala at position 28 |  | Potency at A^4.67-Y5R compared to wt NPY [1]: lower potency |
| T32P-NPY: NPY with Thr32 substituted to Pro |  | Receptor selectivity [2]: selective Y5R agonist |
| W^36-NPY: NPY with Y^36 substituted by Trp | 2 |  |
| [Y^36A]-NPY: NPY with Y^36 substituted by Ala | 43 |  |
